The text below walks through data of US20140220690A1, “MAMMALIAN GENES INVOLVED IN INFECTION” (priority 2009, published 2014).

The test system of one series is herpes simplex virus. Type of series: cell-based.

Consider `C[C@]12CC[C@@H]3c4ccc(O)cc4CC[C@H]3[C@@H]1CC[C@@H]2O` [17-B Estradiol, 17-B-Estradiol], for which, in the series on vaccinia virus, the “% Effectiveness” value is 50%, the Effective result is given as “✓”, the “Effective [uM]” value was 100 µM and the “inhibition of vaccinia virus infection (in words)” value (from here on “inhibition”) is recorded as “inhibited infection with vaccinia virus”.
Take `COc1ccc(C[C@@H]2NC[C@@H](O)[C@@H]2OC(C)=O)cc1` [ANISOMYCIN, [(2S,3R,4R)-4-hydroxy-2-[(4-methoxyphenyl)methyl]pyrrolidin-3-yl]acetate]: the “state of the cells” value in the series on vaccinia virus was “the cells were healthy”.
Regarding `CC(C)(c1ccc(OCC2CO2)cc1)c1ccc(OCC2CO2)cc1` (stereo not drawn) [BADGE], in the series on vaccinia virus, the “% Effectiveness” value is given as 75%, the Effective result was “✓”, the “Effective [uM]” value lay in the range of 50 to 100 µM and the “inhibition” value is “inhibited infection with vaccinia virus”.
In the case of `C[C@]12CC[C@H](O)CC1=CC[C@@H]1[C@@H]2CC[C@]2(C)C(=O)CC[C@@H]12` [DHEA], in the series with vaccinia virus, the “% Effectiveness” value is 99%, the Effective entry is given as “✓”, the “Effective [uM]” value amounted to 30 µM and the “inhibition” value is listed as “inhibited infection with vaccinia virus”. Also, the “spread of virus over time” value in the series with vaccinia virus is “the virus usually starts to spread after day 2”.
In the case of `N#CC(=C(/N)Sc1ccccc1N)/C(C#N)=C(\N)Sc1ccccc1N` [U0126], the “reversal of the antiviral effect of anisomycin” value with herpes simplex virus is “this effect was reversed”.
